For 30 compounds, Motility results are on record in ChEMBL document CHEMBL3137381, “MMV Box Onchocerca lienalis screening set”.

Each structure is given as a SMILES string.

Type in all cases: functional
Assay [1] has as its system Onchocerca lienalis. Description: MMV: Percent motility assay at a compound concentration of 1.25e-5 M. Activity score legend: 3: Active, 2: Moderately active; 1: Inactive, 0: Toxic. To be noted: at 12.5 µM.
Assay [2] has as its system Onchocerca lienalis. Briefly: MMV: Percent motility assay at a compound concentration of 1.9e-7 M. Activity score legend: 3: Active, 2: Moderately active; 1: Inactive, 0: Toxic. To be noted: at 0.19 µM.
Assay [3] concerns Onchocerca lienalis. Briefly: MMV: Percent motility assay at a compound concentration of 7.8e-7 M. Activity score legend: 3: Active, 2: Moderately active; 1: Inactive, 0: Toxic. As to conditions: at 0.78 µM.
The test system of assay [4] is Onchocerca lienalis. Description: MMV: Percent motility assay at a compound concentration of 3.1e-6 M. Activity score legend: 3: Active, 2: Moderately active; 1: Inactive, 0: Toxic. To be noted: at 3.1 µM.

Regarding `COc1ccc(-c2cc3c(nn2)-c2ccccc2C3=O)cc1`, the Motility in the assay with Onchocerca lienalis [1], with Onchocerca lienalis [2], in the assay with Onchocerca lienalis [3] and with Onchocerca lienalis [4] was 100% in each case.
In the case of `c1ccc(/C2=N/c3ccccc3/N=C(/c3ccccc3)c3ccccc32)cc1`, the Motility in the assay with Onchocerca lienalis [1], in the assay on Onchocerca lienalis [2], with Onchocerca lienalis [3] and with Onchocerca lienalis [4] was 100% in each case.
Consider `COc1ccc(C2c3ccc4ccccc4c3Oc3ncn(CCCn4ccnc4)c(=N)c32)cc1OC` (stereo not given), for which the Motility in the assay with Onchocerca lienalis [1], with Onchocerca lienalis [2], with Onchocerca lienalis [3] and in the assay with Onchocerca lienalis [4] was 100% each time.
As for `COc1ccc(CN2CCCC(C(=O)c3ccc(C(F)(F)F)cc3)C2)c(O)c1` (stereo not given), the Motility with Onchocerca lienalis [1], in the assay with Onchocerca lienalis [2], in the assay on Onchocerca lienalis [3] and in the assay on Onchocerca lienalis [4] was 100% throughout.
Consider `O=C(NC1CCCCC1)C(c1cccs1)N(CCc1ccccc1)C(=O)c1ccco1` (stereo not given), for which the Motility with Onchocerca lienalis [1], in the assay with Onchocerca lienalis [2], with Onchocerca lienalis [3] and in the assay on Onchocerca lienalis [4] was 100% each time.
Regarding `Cl.c1ccc2c(NCCCCCCNc3c4c(nc5ccccc35)CCCC4)c3c(nc2c1)CCCC3`, the Motility with Onchocerca lienalis [1], in the assay with Onchocerca lienalis [2], in the assay with Onchocerca lienalis [3] and with Onchocerca lienalis [4] was 100% each time.
On to `Brc1ccc(Nc2nc3ccccc3nc2Nc2ccc(Br)cc2)cc1`, for which the Motility in the assay on Onchocerca lienalis [1], in the assay on Onchocerca lienalis [2], in the assay with Onchocerca lienalis [3] and with Onchocerca lienalis [4] was 100% each time.
On to `Cc1cc(Nc2ccc(OCc3ccccc3)cc2)nc2cc(O)ccc12`, for which the Motility is reported as 66.66% in the assay on Onchocerca lienalis [1], 100% with Onchocerca lienalis [2], 100% with Onchocerca lienalis [3] and 100% in the assay with Onchocerca lienalis [4].
With `CCN(CC)CCNc1ccnc2cc3ccccc3cc12.O=P(O)(O)O`, the Motility in the assay on Onchocerca lienalis [1], with Onchocerca lienalis [2], in the assay with Onchocerca lienalis [3] and in the assay with Onchocerca lienalis [4] was 100% in each case.
Regarding `N=c1c2ccccc2nnn1-c1cccc(C(F)(F)F)c1`, the Motility in the assay on Onchocerca lienalis [1], with Onchocerca lienalis [2], in the assay with Onchocerca lienalis [3] and with Onchocerca lienalis [4] was 100% each time.
Regarding `COc1cc(-c2nc(-c3ccc(Sc4ccccc4)cc3)c(-c3ccccc3)[nH]2)cc(OC)c1O`, the Motility in the assay on Onchocerca lienalis [1], with Onchocerca lienalis [2], with Onchocerca lienalis [3] and in the assay with Onchocerca lienalis [4] was 100% throughout.
As to `COc1ccc(C2NCCc3c2[nH]c2ccccc32)cc1CN1CCN(c2ccc(F)cc2)CC1.Cl` (stereo not given), the Motility with Onchocerca lienalis [1], in the assay on Onchocerca lienalis [2], in the assay on Onchocerca lienalis [3] and in the assay on Onchocerca lienalis [4] was 100% in each case.
As for `OC(Cn1nnc2ccccc21)Cn1c2ccc(Br)cc2c2cc(Br)ccc21` (stereo not given), the Motility in the assay with Onchocerca lienalis [1], in the assay on Onchocerca lienalis [2], in the assay with Onchocerca lienalis [3] and in the assay on Onchocerca lienalis [4] was 100% in each case.
For the compound `Cc1ccc(C)c(Cn2c(N3CCC(C(=O)NCc4cccs4)CC3)nc3ccccc32)c1`, the Motility in the assay on Onchocerca lienalis [1], with Onchocerca lienalis [2], in the assay on Onchocerca lienalis [3] and in the assay on Onchocerca lienalis [4] was 100% in each case.
Turning to `Cc1ccccc1OCCSc1nc2ccc(NC(=O)c3cccs3)cc2s1`, the Motility with Onchocerca lienalis [1], in the assay with Onchocerca lienalis [2], with Onchocerca lienalis [3] and with Onchocerca lienalis [4] was 100% in each case.
As for `CCN(CC)CCCNc1ccnc2cc3ccccc3cc12`, the Motility with Onchocerca lienalis [1], in the assay on Onchocerca lienalis [2], with Onchocerca lienalis [3] and with Onchocerca lienalis [4] was 100% throughout.
With `O=C(Nc1ccc(-c2nc3cc4ccccc4cc3[nH]2)cc1)c1cccc(Br)c1`, the Motility in the assay on Onchocerca lienalis [1], in the assay on Onchocerca lienalis [2], in the assay with Onchocerca lienalis [3] and with Onchocerca lienalis [4] was 100% in each case.
As for `Cc1ccc(-c2nc3ccccc3o2)cc1NCc1cc(Cc2ccccc2)ccc1O`, the Motility in the assay with Onchocerca lienalis [1], in the assay with Onchocerca lienalis [2], in the assay with Onchocerca lienalis [3] and with Onchocerca lienalis [4] was 100% throughout.
Consider `COc1ccc(C(O)(CCC(C)C)C(CN2CCOCC2)c2ccc(Cl)cc2)cc1.Cl` (stereo not given), for which the Motility in the assay on Onchocerca lienalis [1], in the assay on Onchocerca lienalis [2], with Onchocerca lienalis [3] and in the assay on Onchocerca lienalis [4] was 100% throughout.
Consider `CCCOCc1cc(CN2CCN(c3cccc(Cl)c3)CC2)c(O)c2ncccc12`, for which the Motility in the assay on Onchocerca lienalis [1], with Onchocerca lienalis [2], with Onchocerca lienalis [3] and in the assay on Onchocerca lienalis [4] was 100% in each case.
For `O=C(Cc1ccccc1)NC(c1ccc(Cl)cc1)c1c(O)ccc2ccccc12` (stereo not given), the Motility in the assay with Onchocerca lienalis [1], in the assay with Onchocerca lienalis [2], with Onchocerca lienalis [3] and in the assay on Onchocerca lienalis [4] was 100% throughout.
Take `COc1ccc(C(=O)NC(c2ccccc2Cl)c2cc(Cl)c3cccnc3c2O)cc1` (stereo not given): the Motility in the assay with Onchocerca lienalis [1], in the assay with Onchocerca lienalis [2], in the assay on Onchocerca lienalis [3] and with Onchocerca lienalis [4] was 100% throughout.
With `Cc1cccc(N2C(=O)C3C(C2=O)C2(c4ccccc4)C(=O)C3(c3ccccc3)C(c3ccc4c(c3)OCO4)=C2c2ccc3c(c2)OCO3)c1` (stereo not given), the Motility in the assay on Onchocerca lienalis [1], in the assay with Onchocerca lienalis [2], in the assay on Onchocerca lienalis [3] and in the assay on Onchocerca lienalis [4] was 100% each time.
For the compound `Cc1ccc(F)cc1NC(=O)c1cc(Cl)ccc1Nc1ccccc1`, the Motility in the assay on Onchocerca lienalis [1], in the assay on Onchocerca lienalis [2], with Onchocerca lienalis [3] and with Onchocerca lienalis [4] was 100% each time.
Turning to `CCCCCCc1cc2cc(-c3nc4ccccc4[nH]3)c(=Nc3ccccc3C)oc2cc1O`, the Motility in the assay with Onchocerca lienalis [1], in the assay on Onchocerca lienalis [2], with Onchocerca lienalis [3] and in the assay on Onchocerca lienalis [4] was 100% throughout.
In the case of `CCCCCCC(O)(c1ccc(F)cc1)C(CN1CCOCC1)c1ccccc1.Cl` (stereo not given), the Motility in the assay with Onchocerca lienalis [1], in the assay on Onchocerca lienalis [2], with Onchocerca lienalis [3] and in the assay with Onchocerca lienalis [4] was 100% each time.
For `COc1cc(OC)cc(N2C(=O)N(Cc3ccc(C(C)(C)C)cc3)c3ccccc3S2(=O)=O)c1`, the Motility is 33.33% in the assay on Onchocerca lienalis [1], 100% in the assay with Onchocerca lienalis [2], 100% with Onchocerca lienalis [3] and 100% with Onchocerca lienalis [4].
Turning to `CCOc1c(Br)cc(C2C(C(=O)OC)=CN(C)C=C2C(=O)OC)cc1OC`, the Motility in the assay on Onchocerca lienalis [1], in the assay with Onchocerca lienalis [2], with Onchocerca lienalis [3] and in the assay with Onchocerca lienalis [4] was 100% each time.
For the compound `CN(C)c1ccc(N=Cc2ccc(N3CCOCC3)cc2)cc1`, the Motility in the assay with Onchocerca lienalis [1] came to 93.33%; in the assay on Onchocerca lienalis [2], 100%; in the assay on Onchocerca lienalis [3] it was 100%; in the assay with Onchocerca lienalis [4], 100%.
Consider `CCOC(=O)c1c[nH]c2c(CC)cccc2c1=O`, for which the Motility with Onchocerca lienalis [1], in the assay on Onchocerca lienalis [2], with Onchocerca lienalis [3] and in the assay with Onchocerca lienalis [4] was 100% each time.
